In paper PMC4104544 (Cell, 2014):
pEC50: −log10 of the molar value.

Target: OSBP (oxysterol-binding protein) (Homo sapiens, UniProt P22059)
Assay: cell-based

OSBP (oxysterol-binding protein), sequence (P22059 2-807): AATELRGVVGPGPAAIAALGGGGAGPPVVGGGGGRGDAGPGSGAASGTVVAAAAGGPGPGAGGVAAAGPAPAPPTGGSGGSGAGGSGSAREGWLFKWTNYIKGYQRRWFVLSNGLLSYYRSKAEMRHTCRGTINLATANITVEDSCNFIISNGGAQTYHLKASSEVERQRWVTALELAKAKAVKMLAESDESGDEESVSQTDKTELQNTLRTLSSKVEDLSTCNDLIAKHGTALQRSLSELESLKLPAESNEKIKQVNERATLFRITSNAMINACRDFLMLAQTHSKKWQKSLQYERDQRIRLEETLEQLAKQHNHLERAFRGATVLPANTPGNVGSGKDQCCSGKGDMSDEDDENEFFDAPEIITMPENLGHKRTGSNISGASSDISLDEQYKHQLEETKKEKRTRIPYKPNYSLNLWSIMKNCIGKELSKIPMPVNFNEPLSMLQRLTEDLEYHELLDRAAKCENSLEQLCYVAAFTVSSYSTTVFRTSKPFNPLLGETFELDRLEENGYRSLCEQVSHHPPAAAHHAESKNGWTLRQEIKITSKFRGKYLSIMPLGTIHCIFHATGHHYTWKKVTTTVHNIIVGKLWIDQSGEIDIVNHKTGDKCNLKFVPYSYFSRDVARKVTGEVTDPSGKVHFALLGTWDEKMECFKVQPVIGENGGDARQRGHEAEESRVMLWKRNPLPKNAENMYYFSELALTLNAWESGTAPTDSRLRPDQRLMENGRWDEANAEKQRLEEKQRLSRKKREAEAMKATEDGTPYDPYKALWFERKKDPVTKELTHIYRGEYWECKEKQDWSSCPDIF
OSBP (oxysterol-binding protein), sequence (O75344 whole entry partner): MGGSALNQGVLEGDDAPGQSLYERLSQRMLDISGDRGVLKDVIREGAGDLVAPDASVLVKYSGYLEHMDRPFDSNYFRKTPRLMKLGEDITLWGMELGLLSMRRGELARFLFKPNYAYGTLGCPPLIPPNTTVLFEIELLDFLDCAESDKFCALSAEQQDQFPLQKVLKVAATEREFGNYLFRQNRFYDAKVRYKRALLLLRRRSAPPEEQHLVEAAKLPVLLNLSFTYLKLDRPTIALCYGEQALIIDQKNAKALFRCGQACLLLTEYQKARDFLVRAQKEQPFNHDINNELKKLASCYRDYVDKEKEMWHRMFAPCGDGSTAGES

Q: How did the pEC50 turn out when `COc1ccc(C(=O)O[C@H]2[C@H](O[C@@H]3[C@@H](OC(C)=O)[C@H](O[C@H]4C[C@H]5[C@@H]6CC=C7C[C@@H](O)CC[C@]7(C)[C@H]6CC[C@]5(C)[C@@]4(O)[C@H](C)C(=O)CCC(C)C)OC[C@@H]3O)OC[C@@H](O)[C@@H]2O)cc1` [OSW-1] was run?
A: 7.22
